Data: ChEMBL document CHEMBL3045906, “LCMS/MS method for simultaneous analysis of cladrin and equol in rat plasma and its application in pharmacokinetics study of cladrin” (Med Chem Res, 2011)

Legend:
Plasma = assay: Drug recovery in Rattus norvegicus (rat) plasma at 50 ng/ml by LLE method; format: ADME, cell-free
[1] = Stability of the compound in Rattus norvegicus (rat) plasma at 7.8 ng/ml after 2 months at -80 degC; format: ADME, cell-free; details: read-out: Stability
[2] = Stability of the compound in Rattus norvegicus (rat) plasma at 7.8 ng/ml after three 24 hr cycles of freeze-thaw on storing at -80 degC; format: ADME, cell-free; details: read-out: Stability
[3] = Stability of the compound in Rattus norvegicus (rat) plasma at 62.5 ng/ml after three 24 hr cycles of freeze-thaw on storing at -80 degC; format: ADME, cell-free; details: read-out: Stability
[4] = Stability of the compound in Rattus norvegicus (rat) plasma at 1000 ng/ml after 2 months at -80 degC; format: ADME, cell-free; details: read-out: Stability
[5] = Stability of the compound in Rattus norvegicus (rat) plasma at 62.5 ng/ml after 2 months at -80 degC; format: ADME, cell-free; details: read-out: Stability
[6] = Stability of the compound in Rattus norvegicus (rat) plasma at 1000 ng/ml after three 24 hr cycles of freeze-thaw on storing at -80 degC; format: ADME, cell-free; details: read-out: Stability
[7] = AUC (0 to alpha) in Rattus norvegicus Sprague-Dawley (rat) at 10 mg/kg, po; format: ADME, organism-based; parameters: dose 10 mg/kg, route oral; details: plasma
[8] = Mean residence time in Rattus norvegicus Sprague-Dawley (rat) at 10 mg/kg, po; format: ADME, organism-based; parameters: dose 10 mg/kg, route oral; details: in vivo
[9] = Tmax in Rattus norvegicus Sprague-Dawley (rat) at 10 mg/kg, po; format: ADME, organism-based; parameters: dose 10 mg/kg, route oral; details: in vivo
[10] = Cmax in Rattus norvegicus Sprague-Dawley (rat) at 10 mg/kg, po; format: ADME, organism-based; parameters: dose 10 mg/kg, route oral; details: in vivo
[11] = Half life in Rattus norvegicus Sprague-Dawley (rat) at 10 mg/kg, po; format: ADME, organism-based; parameters: dose 10 mg/kg, route oral; details: in vivo

Row | Structure (SMILES) | Drug recovery (Plasma) | remaining at 1461 h, 7.8 ng/ml [1] | remaining at 24 h, 7.8 ng/ml [2] | remaining at 24 h, 62.5 ng/ml [3] | remaining at 1461 h, 1000 ng/ml [4] | remaining at 1461 h, 62.5 ng/ml [5] | remaining at 24 h, 1000 ng/ml [6] | AUC [7] | MRT [8] | Tmax [9] | Cmax [10] | half-life [11]
1 | O=c1c(-c2ccccc2)coc2cc(O)ccc12 [7-HYDROXY ISOFLAVONE] | 85.3% |  |  |  |  |  |  |  |  |  |  | 
2 | Oc1ccc([C@H]2COc3cc(O)ccc3C2)cc1 [AUS-131] | 76.5% | 100% | 93.9% | 94.6% | 95.6% | 103% | 91.8% |  |  |  |  | 
3 | COc1ccc(-c2coc3cc(O)ccc3c2=O)cc1OC [CLADRIN] | 83.5% | 106% | 93.6% | 98.5% | 81.4% | 84.5% | 88.2% | 0.609 µg·h/mL | 10.8 h | 0.5 h | 0.0448 µg/mL | 4.1 h
